Laboratory results taken from patent US8334277B2, “{4-[2-(dimethylamino)-1-(1-hydroxycyclohexyl)ethyl]phenoxy}phosphate or a pharmaceutically acceptable salt thereof, a production method therefor and a pharmaceutical composition for preventing and treating central nervous system disorders containing the same as an active component” (JE IL Pharmaceutical Co., Ltd., priority 2008, dated 2012).

How the values were obtained:
[1] = Measurement of solubility in water (HPLC, saturated solution); format: physicochemical
Protocol: Experiment was conducted to measure water solubility of ODV phosphate compound of the present invention.
40, 50 and 60 mg of ODV phosphate composition prepared by the embodiment was mixed in 100 mL of water to form 0.4, 0.5 and 0.6 mg/mL concentration of ODV phosphate solution respectively. The above ODV phosphate solution and internal standard substance were analyzed with HPLC to measure ODV phosphate according to the concentration of ODV phosphate and peak area ratio of internal standard substance, and a calibration curve was set. The HPLC analysis was done many times to measure the average value of the calibration curve.
An excessive amount of ODV phosphate compound (approximately 400 mg) prepared by the embodiment was dissolved in 2 mL of water and filtered to form a saturated solution. 1 mL of the above saturated solution was diluted with water to prepare 20 mL of solution. The diluting process was repeated many times to form saturated solution with 800 times of dilution rate. This solution and internal standard substance were analyzed with HPLC to measure ODV phosphate and peak area ratio of internal standard. The measured value was substituted in calibration curve to calculate the concentration, and multiply the dilution rate to measure solubility.

ICR mice = assay: Acute toxicity experiment, intraperitoneal injection, number of dead mice over 7 days; format: in vivo; details: for The number of death mice: Day 1, 8 mice
Protocol: Experiment was conducted to measure acute toxicity of ODV phosphate compound according to an embodiment of the present invention.
7-week-old ICR mice, weighing 25˜35 g each, were used in the experiment (SPF, production firm: coretech).

[2] = Pharmacokinetics experiment, oral administration, blood concentration by LC/MS/MS; format: in vivo, SD rats; details: 120 mg/kg oral
Protocol: 9-week-old female […], SD rats, weighing 320±20 g each, were used in the experiment (SPF, production firm: coretech). ODV phosphate compound prepared by the embodiment was dissolved in solvent (100% distilled water) and 120 mg/kg of the same was orally administered to 3 mice. After 0.08, 0.25, 0.5, 1, 2, 3, 4, 6 hours of administration, blood was taken from mice, and separated by centrifuge. The concentration of the separated blood was measured with LC/MS/MS. As a comparative example, ODV succinate hydrate was measured in the same manner explained above.
Cmax is the highest concentration level of blood in body, Tmax is the time to reach the highest concentration level of blood, AUC0-t is square between blood concentration to time and time, AUC0-inf is square between blood concentration and time, and t1/2 is half-life of compound in body, and MRTinf is remaining period of compound in body.

Q: With `CN(C)CC(c1ccc(OP(=O)(O)O)cc1)C1(O)CCCCC1` (stereo not shown) [ODV phosphate, {4-[2-(dimethylamino)-1-(1-hydroxycyclohexyl)ethyl]phenoxy}phosphate] as the compound, how does the “water solubility, times higher than ODV succinate” value ([1]; 313.4 vs […]) read?
A: Its value is 4 times.

Q: What about the solubility ([1]; thermodynamic from solid) of the same compound?
A: The solubility was 313 mg/mL.

Q: What about the “dead mice over the whole observation” value (ICR mice; 450 mg/kg i.p., for 7 days, 8 mice) of the same compound?
A: The value was “no mice were dead”.

Q: What about the “AUC0-inf compared with ODV succinate hydrate” value [2] of the same compound?
A: The value was “noticeably higher”.

Q: What about the “Cmax compared with ODV succinate hydrate” value [2] of the same compound?
A: Its value is “noticeably higher”.

Q: Which “The number of death mice” value (ICR mice; 350 mg/kg i.p.) does the source give for `CN(C)CC(c1ccc(O)cc1)C1(O)CCCCC1.O=C(O)CCC(=O)O` (stereo not shown) [ODV succinate] here?
A: Its value is 2.

Q: And the “The number of death mice” value (ICR mice; 450 mg/kg i.p.)?
A: Its value is 8.

Q: And the AUC0-inf ([2]; blood)?
A: Its AUC0-inf is 9268.8 ng·h/mL.

Q: What about the Cmax ([2]; blood) of the same compound?
A: Its Cmax is 2786.7 ng/mL.

Q: And the MRTinf ([2]; blood)?
A: The MRTinf was 5.7 h.

Q: What about the Tmax ([2]; blood) of the same compound?
A: Its Tmax is 30 min.

Q: And the t1/2 ([2]; blood)?
A: Its t1/2 is 5.0 h.

Q: And the AUC0-t ([2]; blood, sampling to 6 hours)?
A: The AUC0-t was 7017.4 ng·h/mL.
